Reference: article PMC6661831, “Molecular docking, synthesis, kinetics study, structure–activity relationship and ADMET analysis of morin analogous as Helicobacter pylori urease inhibitors” (BMC Chemistry, 2019)
≈ marks a conversion by molar mass, not a printed value. Where two headings read alike, the source gives them in different places.

Legend:
[1] = system: H. pylori bacterium (ATCC 43504, DSM 4867); test: Anti-H. pylori activity, well diffusion technique; type: cell-based, Helicobacter pylori; settings: 2500 µg per well, 24–48 h, 35 °C
Experimental: (§1) Compounds M2b and M2i which were found potent in urease inhibition and antioxidant activity as well as in terms of docking score were tested further against antibacterial efficiency against Helicobacter pylori ATCC 43504, DSM 4867 using AHA as a standard and DMSO as control. […] It could be concluded that compound M2i indicated excellent antibacterial action against H. Pylori, antioxidant and urease inhibitory activity.
(§2) Novel synthesized derivatives were investigated against H. pylori bacterium (ATCC 43504 DSM 4867, AHA as standard) for their antibacterial activity by using Well diffusion technique. The stock solution of compounds in DMSO (1000 μg/mL) were prepared. Cell suspension was prepared from culture grown on BHI broth. The cell suspensions of all the cultures were adjusted to 1–2 × 10^5cells/ml. Helicobacter pylori (100 µl) was inoculated by spread plate technique on agar plates (90 mm). Agar wells (5 mm) were made on H. pylori inoculated media and impregnated with 2500 µg of each sample and standard which were incubated @ 35 °C for 24–48 h with 5% CO2 and observed for zone of inhibition around the well. MIC was determined against Helicobacter pylori by micro broth dilution technique as per NCCLS method.

[2] = system: H. pylori bacterium (ATCC 43504, DSM 4867); test: MIC against Helicobacter pylori, micro broth dilution technique; type: cell-based; settings: NCCLS method
Experimental: as §1, §2

[3] = DPPH radical scavenging (antioxidant) assay; settings: DPPH 300 µM, 30 min, mean SEM
Description: (§3) The novel synthesized Morin derivatives were examined for in- vitro urease inhibitory action by determining the ammonia concentration released during the reaction by indophenol technique as described by Weatherburn as well as for antioxidant nature by determining the ability of compounds to donate hydrogen and electrons using DPPH method.
DPPH method was adopted for measuring the antioxidant nature of the synthesized derivatives. According to this method synthesized compounds were allowed to react for 0.5 h. at 37 °C with stable free radical, 1, 1-diphenyl-2-picrylhydrazyl radical (DPPH). The DPPH was taken in a concentration of 300 µM. Decrease in value of absorption at […] was measured after the period of incubation using a microplate reader using ascorbic acid as a standard. Molecule which can donate a proton to DPPH and cause its reduction act as an antioxidant. Following reduction deep violet coloured DPPH solution changes to yellow depending upon the nature of antioxidant compound, which brings a measurable decrease in value of absorption at 517 nm. The proton or electron donating capacity of the derivative was estimated from the fading of deep purple colored methanolic solution of 1, 1-diphenylpicrylhydrazyl (DPPH). Incubation of mixture was done at room temperature for 30 min and measurements were done at 517 against blank. Calculation of percentage inhibition was done by following formula: I\% =AControl-ASample/AControl×100 where, Acontrol is control absorbance; Asample is test absorbance

[4] = molecular target: T1, Jack bean urease (Canavalia ensiformis, UniProt P07374); test: biochemical
T1 construct: purchased Sigma Aldrich
Description: as §3
Urease enzyme inhibition investigation studies for all synthesized compounds were done by the method developed by Weatherburn named Indophenol against Jack Bean Urease. Briefly, incubation of solution of Jack bean protein 25 μL was done at temperature of 30 °C for a period of 15 min with 55 μL of buffers solution having 100 mM urea and 5 μL of test solution in 96-well plates. 45 μL phenol solution composing phenol 1% w/v and solution of sodium nitroprusside 0.005% w/v and alkali reagent 70 μL composed of sodium hydroxide 0.5% w/v and active sodium hypochloride solution 0.1% were mixed to every well. The measurement of increase in absorption at 625 nm was done after 50 min by help of a microplate reader (Molecular Device, USA). Readings were recorded in triplicate set in a final volume of 200 μL using thiourea as standard. Each assay was performed at pH 8.2 (0.01 M K2HPO4.3H2O, 0.01 M […] and 1 mM EDTA). Calculation of Inhibition in percentage of synthesized derivatives was done by the formula given as: I\% =AControl-ASample/AControl×100 where, Acontrol is control absorbance; Asample is test absorbance

[5] = read-out: IC50 urease inhibition, Jack bean urease, indophenol method, pH 8.2, mean SEM

T1 sequence (P07374 whole entry, looked up): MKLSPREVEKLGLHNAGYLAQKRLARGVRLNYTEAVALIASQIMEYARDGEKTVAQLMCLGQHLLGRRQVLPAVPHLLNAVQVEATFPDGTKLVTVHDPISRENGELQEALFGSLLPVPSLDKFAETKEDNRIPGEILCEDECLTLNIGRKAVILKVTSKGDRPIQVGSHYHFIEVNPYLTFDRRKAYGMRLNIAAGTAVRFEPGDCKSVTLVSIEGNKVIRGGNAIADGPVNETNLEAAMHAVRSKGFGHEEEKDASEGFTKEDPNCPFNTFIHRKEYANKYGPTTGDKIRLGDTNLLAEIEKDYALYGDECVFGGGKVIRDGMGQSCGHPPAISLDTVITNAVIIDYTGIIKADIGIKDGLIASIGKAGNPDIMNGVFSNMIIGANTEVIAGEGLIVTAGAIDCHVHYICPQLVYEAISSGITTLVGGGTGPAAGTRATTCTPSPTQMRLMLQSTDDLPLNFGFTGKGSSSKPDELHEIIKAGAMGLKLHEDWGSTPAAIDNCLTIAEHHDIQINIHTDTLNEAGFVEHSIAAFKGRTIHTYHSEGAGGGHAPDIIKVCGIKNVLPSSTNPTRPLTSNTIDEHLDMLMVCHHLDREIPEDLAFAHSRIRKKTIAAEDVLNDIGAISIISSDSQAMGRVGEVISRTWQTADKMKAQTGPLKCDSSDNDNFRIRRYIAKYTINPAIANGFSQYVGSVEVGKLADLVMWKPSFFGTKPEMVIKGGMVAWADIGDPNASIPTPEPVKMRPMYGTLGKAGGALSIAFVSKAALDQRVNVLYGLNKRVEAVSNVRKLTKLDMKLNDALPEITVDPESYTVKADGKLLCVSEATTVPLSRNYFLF

SMILES | IC50 [3] | IC50 [4] | other results
CC(=O)NO [AHA, acetohydroxamic acid] | – | – | zone of inhibition [1]: 9.00 ± 0.50 mm; MIC [2]: 1000 µg/mL (≈ 13.3 mM)
O=C1O[C@H]([C@@H](O)CO)C(O)=C1O [Ascorbic acid, reference compound] | 8.59 ± 0.004 µM | – | –
Oc1ccc(-c2oc3cc(O)cc(O)c3c(=NC(=S)Nc3ccccc3)c2O)c(O)c1 [Compound M2a, N-((4E)-2-(2,4-dihydroxyphenyl)-3,5,7-trihydroxy-4H-chromen-4-ylidene)-N-phenylthiourea] | 7.795 ± 0.003 µM | 12.71 ± 0.027 µM | –
Oc1ccc(-c2oc3cc(O)cc(O)c3c(=NC(=S)Nc3ccccc3Cl)c2O)c(O)c1 [Compound M2b, N-(2-chlorophenyl)-N-((4E)-2-(2,4-dihydroxyphenyl)-3,5,7-trihydroxy-4H-chromen-4-ylidene)thiourea] | 7.37 ± 0.024 µM | – | –
O=[N+]([O-])c1ccccc1NC(=S)N=c1c(O)c(-c2ccc(O)cc2O)oc2cc(O)cc(O)c12 [Compound M2c, N-((4E)-2-(2,4-dihydroxyphenyl)-3,5,7-trihydroxy-4H-chromen-4-ylidene)-N-(2-nitrophenyl)thiourea] | 10.18 ± 0.006 µM | – | IC50 [4, 5]: 19.5 ± 0.005 µM
O=[N+]([O-])c1cccc(NC(=S)N=c2c(O)c(-c3ccc(O)cc3O)oc3cc(O)cc(O)c23)c1 [Compound M2d, N-((4E)-2-(2,4-dihydroxyphenyl)-3,5,7-trihydroxy-4H-chromen-4-ylidene)-N-(3-nitrophenyl)thiourea] | 11.56 ± 0.013 µM | – | IC50 [4, 5]: 20.41 ± 0.031 µM
O=[N+]([O-])c1ccc(NC(=S)N=c2c(O)c(-c3ccc(O)cc3O)oc3cc(O)cc(O)c23)cc1 [Compound M2e, N-((4E)-2-(2,4-dihydroxyphenyl)-3,5,7-trihydroxy-4H-chromen-4-ylidene)-N-(4-nitrophenyl)thiourea] | 8.744 ± 0.008 µM | – | IC50 [4, 5]: 20.2 ± 0.01 µM
NC(=S)N/N=c1\c(O)c(-c2ccc(O)cc2O)oc2cc(O)cc(O)c12 [Compound M3, (1Z)-1-(3,5,7-trihydroxy-2-(2,4-dihydroxyphenyl)-4H-chromen-4-ylidene)thiosemicarbazide] | 11.9 ± 0.031 µM | 17.9 ± 0.007 µM | –
Oc1ccc(-c2oc3cc(O)cc(O)c3/c(=N/C(=S)NNc3ccccc3)c2O)c(O)c1 [Compound M4, (4Z)-4-(3,5,7-trihydroxy-2-(2,4-dihydroxyphenyl)-4H-chromen-4-ylidene)-1-phenylthiosemicarbazide] | 8.099 ± 0.018 µM | 18.96 ± 0.011 µM | –
Oc1ccc(-c2oc3cc(O)cc(O)c3/c(=N/Nc3ccccc3)c2O)c(O)c1 [Compound M5, (4Z)-2-(2,4-dihydroxyphenyl)-4-(2-phenylhydrazinylidene)-4H-chromene-3,5,7-triol] | 8.78 ± 0.008 µM | 17.68 ± 0.08 µM | –
O=c1c(O)c(-c2ccc(O)cc2O)oc2cc(O)cc(O)c12 [Morin, 3,5,7, 2′, 4′-pentahydroxyflavone] | 12.83 ± 0.028 µM | 21.77 ± 0.016 µM | –
NC(N)=S [Thiourea, reference compound] | – | – | IC50 ([4]; Jack bean urease, indophenol method, pH 8.2, mean SEM, read-out: IC50 urease inhibition): 22.8 ± 0.011 µM
